Measured values published in patent US20220280526A1, “AGENT FOR THE TREATMENT OF PSORIASIS” (EBERHARD KARLS UNIVERSITAET TUEBINGEN MEDIZINISCHE FAKULTAET, priority 2019, published 2022).
“Also recorded” adds a separate entry of the source.

Key:
cutaneous melanomas = conditions: mice; cited from earlier work
[1] = tested on: IMQ-induced psoriasis-like skin inflammation; assay: Imiquimod (IMQ)-mediated psoriasis mouse model, topical treatment of ears; type: in vivo, C57BL/6 mice
Method: Experiments were conducted in accordance with the German law guidelines of animal care. […] At day 7, mice were sacrificed and analysed. For IL-36α-mediated psoriasis induction, ears of male C57BL/6 mice (8-12 weeks old) were treated by intradermal injections using 1 μg murine IL-36α (aa 8-160, R&D) or PBS control for 5 consecutive days. […] Inhibitors were topically applicated 6 h before intradermal injections of IL-36α or PBS were applied. Mice were sacrificed and analysed at day 6.
Sample preparation was performed as described. The following anti-mouse antibodies from BioLegend were used: anti-CD45 FITC (103107), anti-CD11 b PacificBlue (101223), anti-Ly6G PE (127607), anti-F4/80 APC (123115), anti-CD11c Pacific Blue (117322), anti-MHC-II APC (107613), anti-CD172α PE (144011) and anti-Silec-H PE (129605). Anti-PDCA-1 APC (17-2092-80) and anti-αβTCR PE (HM3628) were purchased from Invitrogen, and anti-γδ-TCR APC (17-5711-82) from Sigma. Data was acquired on a LSRII flow cytometer (Becton Dickson).
Ear sections from mice were fixed in 10% formalin (Carl Roth) and subsequently embedded in paraffin. 5-μm sections were prepared and incubated with the following antibodies from Cell Signaling: pSTAT3 (9145), pRB (8516) and H3K27me3 (9733). For staining of human skin samples, EZH2 antibody (Cell Signaling, 5246) was used. Antigen retrieval was performed in 1 mM EDTA pH 8.0 for pSTAT3, and 10 mM citrate buffer pH 6.0+0.5% Triton X-100 for EZH2, H3K27me3 and pRB. After incubation with peroxidase-coupled secondary antibodies, sections were stained with DAB substrate.

[2] = tested on: non-Hodgkin's lymphoma / DLBCL cell lines; conditions: cited from earlier work; for effect on DLBCL cells with EZH2 (Y641) mutations: diffused large B cell lymphoma cells
H3K27me3 = conditions: cited from earlier work
[3] = tested on: IL-36-mediated psoriasis-like dermatitis; assay: IL-36α-triggered psoriasis-like dermatitis mouse model, topical treatment of ears; type: in vivo, C57BL/6 mice
Method: Experiments were conducted in accordance with the German law guidelines of animal care. […] At day 7, mice were sacrificed and analysed. For IL-36α-mediated psoriasis induction, ears of male C57BL/6 mice (8-12 weeks old) were treated by intradermal injections using 1 μg murine IL-36α (aa 8-160, R&D) or PBS control for 5 consecutive days. […] Inhibitors were topically applicated 6 h before intradermal injections of IL-36α or PBS were applied. Mice were sacrificed and analysed at day 6. Ear sections from mice were fixed in 10% formalin (Carl Roth) and subsequently embedded in paraffin. 5-μm sections were prepared and incubated with the following antibodies from Cell Signaling: pSTAT3 (9145), pRB (8516) and H3K27me3 (9733). For staining of human skin samples, EZH2 antibody (Cell Signaling, 5246) was used. Antigen retrieval was performed in 1 mM EDTA pH 8.0 for pSTAT3, and 10 mM citrate buffer pH 6.0+0.5% Triton X-100 for EZH2, H3K27me3 and pRB. After incubation with peroxidase-coupled secondary antibodies, sections were stained with DAB substrate.

[4] = tested on: B cell lymphoma xenografts; conditions: cited from earlier work
[5] = tested on: prostate cancer cell lines; conditions: in vitro; cited from earlier work
[6] = experimental animals; cited from earlier work
SCLC cell lines = conditions: three SCLC cell lines; cited from earlier work
[7] = tested on: wild-type and mutant EZH2; conditions: cited from earlier work
[8] = flow cytometry of ears at day 7

## Cc1cc(C)c(CNC(=O)c2cc(-c3ccc(N4CCN(C)CC4)nc3)cc3c2c(C)cn3C(C)C)c(=O)[nH]1 [GSK503]
Cutaneous melanomas
  growth and metastasis of cutaneous melanomas: inhibits growth and metastasis

## CCS(=O)(=O)N1CCC([C@@H](C)n2c(C)c(C(=O)NCc3c(OC)cc(C)[nH]c3=O)c3ccccc32)CC1 [CPI-169]
[1]; ear skin sections of treated mice
  H3K27me3 expression in the epidermis (EZH2 inhibition): loss
[1]; [8]
  immune cell infiltration (neutrophils, macrophages, T cells): fully abrogated
  number of infiltrating plasmacytoid (pDC) and myeloid dendritic cells (mDC): significantly suppressed
[1]; immunoblot of skin tissue at day 7
  IκBζ expression, phosphorylation of EZH2 at T345 and of STAT3 at Y705 in the skin: completely abrogated
[1]; qPCR of skin samples at day 7
  expression of IκBζ target genes (Cxcl2, Cxcl5) and cytokines (Il17a, Il23a) in skin: significantly downregulated
[1]; topical daily for 6 days with IMQ, abemaciclib 0.02 mg, CPI-169 0.05 mg per ear/day, analysed day 7
  psoriasis-like skin inflammation (ear thickening, keratinocyte hyperproliferation, immune cell infiltration): completely suppressed; also recorded: completely suppressing
[2]; large panel of NHL cell lines
  effect on non-Hodgkin's lymphoma (NHL) cell lines: triggering cell cycle arrest and ultimately resulting in apoptosis
H3K27me3
  cellular H3K27me3 / H3K27 methylation: decreases
[3]; immunoblot of ear skin at day 6
  IL-36-mediated expression of IκBζ, phosphorylation of EZH2 at T345 and activation of STAT3 (pSTAT3 Y705) in skin: suppressed
[3]; intradermal IL-36α 5 days, topical inhibitor, abemaciclib 0.02 mg, CPI-169 0.05 mg, day 6
  keratinocyte hyperproliferation and immune cell infiltration: effectively blocked
[3]; qPCR of skin samples
  IκBζ target gene expression and key cytokine expression (Il17a, Il23a): effectively blocked

## CCc1c(N(CC)C2CCOCC2)cc2oc(C3CCN(C(C)C)CC3)cc2c1C(=O)NCc1c(C)cc(C)[nH]c1=O [EBI-2511]
[4]; mouse
  efficacy in Pfeiffer tumor Xenograft models: high in vivo efficacy

## CCCc1cc(C)[nH]c(=O)c1CNC(=O)c1cc(-c2ccnc(N3CCN(C)CC3)c2)cc2c1cnn2C(C)C [GSK343]
[5]
  proliferation of prostate cancer cell lines: inhibits proliferation
H3K27me3; breast cancer cells in vitro
  H3K27me3 levels: decrease

## COc1cc(C)[nH]c(=O)c1CNC(=O)c1c(C)n([C@H](C)C2CCN(CC(F)(F)F)CC2)c2ccccc12 [CPI-1205]
[6]
  tolerability: well-tolerated

## CCN(c1cc(C#CCN2CCOCC2)cc(C(=O)NCc2c(C)cc(C)[nH]c2=O)c1C)[C@H]1CC[C@H](N(C)CCOC)CC1 [EPZ011989]
[4]; mouse
  tumor growth, xenograft model of human B cell lymphoma: significant tumor growth inhibition

## Cc1cc(C)c(CN2CCc3c(Cl)cc(-c4c(C)noc4C)c(Cl)c3C2=O)c(=O)[nH]1 [PF-06726304]
[4]; mouse, in vivo
  efficacy in diffuse large B-cell lymphoma Karpas-422 tumor model: good efficacy

## CC[C@H](C)n1cc(C)c2c(C(=O)NCc3c(C)cc(C)[nH]c3=O)cc(-c3ccc(N4CCNCC4)nc3)cc21 [GSK126]
[4]; mice
  growth of EZH2 mutant DLBCL xenografts: effectively inhibits
SCLC cell lines
  growth of SCLC cell lines: induces growth inhibition
[2]
  effect on DLBCL cells with EZH2 (Y641) mutations: effectively inhibits proliferation

## CCCc1cc(C)[nH]c(=O)c1CNC(=O)c1cc(-c2ccc(N3CCN(C(C)C)CC3)nc2)cc2c1cnn2C(C)C [UNC1999]
[7]
  difference in potency, wild-type vs mutant Y641N EZH2 methyltransferase activity: < 5 fold
[2]
  effect on DLBCL cells with EZH2 (Y641) mutations: selectively killed

## CCC(CC)n1ccc2c(C(=O)NCc3c(C)cc(C)[nH]c3=O)cc(C#N)cc21 [EI1]
[2]
  effect on DLBCL cells with EZH2 (Y641) mutations: decreased proliferation, cell cycle arrest, and apoptosis
H3K27me3
  cellular H3K27me3 / H3K27 methylation: blocks
